{"source": "patent US7803942B2", "about": "“Crystals of morphinan derivative and process for producing the same” (Toray Industries, Inc., priority 2005, dated 2010)"}
{"experiment": "pH of aqueous solution after production (Test Example 2)", "type": "physicochemical", "conditions": "100 mg dissolved in 10 mL of decarbonated water; pH reproducibility after production; hydrochloride", "experimental": "There was taken 100 mg each of the amorphous powders obtained in Reference Examples 1 to 3 and the A-form crystals obtained in Examples 1 to 3, to which 10 mL of decarbonated water was added for dissolution, followed by measuring the pH."}
{"smiles": "CN(C(=O)/C=C/c1ccoc1)[C@@H]1CC[C@@]2(O)[C@H]3Cc4ccc(O)c5c4[C@@]2(CCN3CC2CC2)[C@H]1O5.Cl", "note": "[Example 1, 17-cyclopropylmethyl-3,14β-dihydroxy-4,5α-epoxy-6β-[N-methyl-trans-3-(3-furyl)acrylamido]morphinan hydrochloride]", "pH": 5.8}
{"smiles": "CN(C(=O)/C=C/c1ccoc1)[C@@H]1CC[C@@]2(O)[C@H]3Cc4ccc(O)c5c4[C@@]2(CCN3CC2CC2)[C@H]1O5.Cl", "note": "[Example 3, 17-cyclopropylmethyl-3,14β-dihydroxy-4,5α-epoxy-6β-[N-methyl-trans-3-(3-furyl)acrylamido]morphinan hydrochloride]", "pH": 5.6}
{"smiles": "CN(C(=O)/C=C/c1ccoc1)[C@@H]1CC[C@@]2(O)[C@H]3Cc4ccc(O)c5c4[C@@]2(CCN3CC2CC2)[C@H]1O5.Cl", "note": "[Reference Example 2, 17-cyclopropylmethyl-3,14β-dihydroxy-4,5α-epoxy-6β-[N-methyl-trans-3-(3-furyl)acrylamido]morphinan hydrochloride]", "pH": 4.7}
{"smiles": "CN(C(=O)/C=C/c1ccoc1)[C@@H]1CC[C@@]2(O)[C@H]3Cc4ccc(O)c5c4[C@@]2(CCN3CC2CC2)[C@H]1O5.Cl", "note": "[Reference Example 3, 17-cyclopropylmethyl-3,14β-dihydroxy-4,5α-epoxy-6β-[N-methyl-trans-3-(3-furyl)acrylamido]morphinan hydrochloride]", "pH": 3.5}
{"smiles": "CN(C(=O)/C=C/c1ccoc1)[C@@H]1CC[C@@]2(O)[C@H]3Cc4ccc(O)c5c4[C@@]2(CCN3CC2CC2)[C@H]1O5.Cl", "note": "[Reference Example 1, 17-cyclopropylmethyl-3,14β-dihydroxy-4,5α-epoxy-6β-[N-methyl-trans-3-(3-furyl)acrylamido]morphinan hydrochloride]", "pH": 3.7}
{"smiles": "CN(C(=O)/C=C/c1ccoc1)[C@@H]1CC[C@@]2(O)[C@H]3Cc4ccc(O)c5c4[C@@]2(CCN3CC2CC2)[C@H]1O5.Cl", "note": "[Example 2, 17-cyclopropylmethyl-3,14β-dihydroxy-4,5α-epoxy-6β-[N-methyl-trans-3-(3-furyl)acrylamido]morphinan hydrochloride]", "pH": 5.4}
